Experimental data reported in patent US20210309631A1, “SALT OF CYCLOHEXANE DERIVATIVE” (priority 2018, published 2021).
Where two headings read alike, the source gives them in different places.

How the values were obtained:
[1] = Crystal form stability on heating (XRPD before and after heating); assay type: physicochemical
[2] = In vivo individual difference analysis: individual plasma concentration versus time in rats (Example 8); design: species or system SD rats; settings: intragastric 1 mg/kg; for Plasma Concentrations of Compound of Formula I: listed as Hydrochloride Salt of Compound of Formula I
Experimental: Compound of Formula I and salts thereof (sulfate, hydrochloride salt, phosphate, maleate), supplied by Shanghai Jingxin Biopharmaceutical Co., Ltd. • Strain: SD rats; Gender: male; Body weight: about 250 grams; Source: shanghai Jiesijie Experimental Animal Co., Ltd Route: single intragastric administration; Capacity: measured in 10 mL/kg body weight Preparation: weighing appropriate amount of the free base or salt of the compound of Formula I, adding a small amount of 0.5% CMC-Na to grind, adding 0.5% CMC-Na to the volume. The concentration is measured as the base. 20 SD rats were divided into 5 groups with 4 rats in each group, fasted for 12 h and drank freely before administration. […] The blood was anticoagulated with 1% heparin, the plasma was separated by 8000 rpm centrifugation for 4 min and stored at -40° C. for testing. LC-MS/MS Method. Pharmacokinetic parameters after administration in rats were calculated using a non-compartmental model of DAS 2.0 software.

[3] = Hygroscopicity (DVS) experiment, 25° C./80% relative humidity; assay type: physicochemical; settings: for Hygroscopicity / Vapor sorption: 25° C./80% relative humidity; for hygroscopicity (summary in words): within one week
Experimental: Dynamic vapor sorption curves were collected on a DVS Intrinsic by SMS (Surface Measurement Systems).
20 mg sample of the crystal forms of the Examples and Comparative Examples are placed in the environment of 25° C./80% relative humidity for a dynamic vapor sorption (DVS) test, and the test results […] are shown in Table 5.

[4] = solubility in water; assay type: physicochemical
[5] = Plasma pharmacokinetics in SD rats after single intragastric administration (Example 7); assay type: in vivo; settings: intragastric 1 mg/kg; for MRT inf: read-out: MRT0-∞
Experimental: The in vivo absorption process and characteristics of the free base and four salts thereof (sulfate, hydrochloride salt, phosphate, maleate) of compound (I) in rats were studied. The pharmacokinetics of a single intragastric administration of 1 mg/kg of a compound of Formula I and four salts thereof (calculated by free base concentration in salt form) were studied in SD rats.
SD rats were given a single intragastric administration of 1 mg/kg free base of Example 1 and four salts thereof (including hydrochloride salt from Example 2, sulfate from Example 3, phosphate from Example 4 and maleate from Example 5). There were 4 male rats in each group. The concentration of the compound of Formula I in plasma was determined, and the pharmacokinetic parameters were calculated according to the concentration-time curve.

[6] = DVS, listed as Example 2 hydrochloride salt
[7] = male, SD, rat, plasma, po, 1 mg/kg, Mean ± SD, non-compartmental model
[8] = male, SD, rat, plasma, po, 1 mg/kg, Mean ± SD, non-compartmental model, read-out: Tmax
[9] = DVS, listed as Example 4 phosphate
[10] = Mean ± SD, non-compartmental model, listed as Phosphate

CN(C)C(=O)N[C@H]1CC[C@H](CCN2CCN(c3cccc4ccsc34)CC2)CC1 [Comparative Example 12, N′-[trans-4-[2-[7-(benzo[b]thiophene)-7-piperazinyl]ethyl]cyclohexyl]-N,N-dimethylurea]
stability of the crystal form ([1]; compared with maleate Form A, after being heated): lower than that of maleate Form A | crystal form after heating ([1]; heated to 150° C. and cooled to room temperature, XRPD): turned to maleate Form A

CN(C)C(=O)N[C@H]1CC[C@H](CCN2CCN(c3cccc4ccsc34)CC2)CC1 [Example 2, N′-[trans-4-[2-[7-(benzo[b]thiophene)-7-piperazinyl]ethyl]cyclohexyl]-N,N-dimethylurea]
Plasma Concentrations of Compound of Formula I ([2]; 0.333 h after administration, Mean ± SD): 29.4 ± 16.4 ng/mL | Plasma Concentrations of Compound of Formula I ([2]; 0.333 h after administration, rat 1♂): 37.6 ng/mL | Plasma Concentrations of Compound of Formula I ([2]; 0.333 h after administration, rat 2♂): 25.9 ng/mL | Plasma Concentrations of Compound of Formula I ([2]; 0.333 h after administration, rat 3♂): 8.18 ng/mL | Plasma Concentrations of Compound of Formula I ([2]; 0.333 h after administration, rat 4♂): 45.9 ng/mL | Plasma Concentrations of Compound of Formula I ([2]; 0.5 h after administration, Mean ± SD): 35.1 ± 15.6 ng/mL | Plasma Concentrations of Compound of Formula I ([2]; 0.5 h after administration, rat 1♂): 48.3 ng/mL | Plasma Concentrations of Compound of Formula I ([2]; 0.5 h after administration, rat 2♂): 30.6 ng/mL | Plasma Concentrations of Compound of Formula I ([2]; 0.5 h after administration, rat 3♂): 15.0 ng/mL | Plasma Concentrations of Compound of Formula I ([2]; 0.5 h after administration, rat 4♂): 46.4 ng/mL | Plasma Concentrations of Compound of Formula I ([2]; 1 h after administration, rat 1♂): 32.4 ng/mL | Plasma Concentrations of Compound of Formula I ([2]; 1 h after administration, rat 2♂): 25.3 ng/mL | Plasma Concentrations of Compound of Formula I ([2]; 1 h after administration, rat 3♂): 20.8 ng/mL | Plasma Concentrations of Compound of Formula I ([2]; 1 h after administration, rat 4♂): 42.7 ng/mL | Hygroscopicity [3, 6]: Almost no | Vapor sorption [3, 6]: 0.21% | hygroscopicity (summary in words) ([3]; DVS): almost no hygroscopicity or slight hygroscopicity | solubility in water ([4]; listed as hydrochloride salt Form B): greater than 4.6 mg/ml | AUC [5, 7]: 96.9 ± 29.3 ng·h/mL | AUC(0-inf) [5, 7]: 99.1 ± 28.9 ng·h/mL | Cmax [5, 7]: 36.5 ± 13.1 ng/mL | half-life [5, 7]: 4.72 ± 2.66 h | MRT inf [5, 7]: 4.27 ± 2.2 h | Tmax [5, 8]: 0.625 ± 0.25 h

CN(C)C(=O)N[C@H]1CC[C@H](CCN2CCN(c3cccc4ccsc34)CC2)CC1 [Example 4, N′-[trans-4-[2-[7-(benzo[b]thiophene)-7-piperazinyl]ethyl]cyclohexyl]-N,N-dimethylurea]
Hygroscopicity [3, 9]: Slight | Vapor sorption [3, 9]: 0.61% | solubility in water ([4]; listed as phosphate Form A): greater than 7.6 mg/ml | MRT0-∞ [5, 10]: 3.06 ± 0.434 h | Tmax [5, 10]: 0.833 ± 0.333 h | t1/2 [5, 10]: 3.25 ± 1.23 h

CN(C)C(=O)N[C@H]1CC[C@H](CCN2CCN(c3cccc4ccsc34)CC2)CC1.O=C(O)/C=C\C(=O)O [Example 5, N′-[trans-4-[2-[7-(benzo[b]thiophene)-7-piperazinyl]ethyl]cyclohexyl]-N,N-dimethylurea]
individual difference of plasma concentration ([2]; compared with other salts): smallest | hygroscopicity compared with other salts ([3]; DVS): less hygroscopic than other salts | Hygroscopicity ([3]; DVS): Almost no | Vapor sorption ([3]; DVS): 0.12% | hygroscopicity (summary in words) ([3]; DVS): almost no hygroscopicity or slight hygroscopicity | The crystal form changes after DVS testing or not ([3]; after DVS testing): No | solubility [4]: > 2600 µg/mL | bioavailability (in words) ([5]; compared with other salts): highly bioavailable | half-life (in words) ([5]; compared with other salts): relatively long half-life | AUC [5, 7]: 124 ± 5.79 ng·h/mL | AUC(0-inf) [5, 7]: 125 ± 7 ng·h/mL | Cmax [5, 7]: 45.4 ± 2.81 ng/mL | half-life [5, 7]: 4.67 ± 2.17 h | MRT inf [5, 7]: 3.07 ± 0.531 h | Tmax [5, 8]: 0.75 ± 0.289 h
